From patent US10870638B2, “Pyridazinone compound or its salt, and herbicide containing it” (ISHIHARA SANGYO KAISHA, LTD., priority 2016, dated 2020)

Assays:
Type in all cases: in vivo
Details in all cases: active ingredient amount 31 g/ha, 14th day after application
[1] = system: barnyardgrass (Echinochloa crus-qalli L.); test: Test Example 1: foliar treatment, growth inhibition rate on 14th day
Outline: (§1)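 Visual 0–100% inhibition scoring (100 = complete kill) at 14 days after foliar treatment of soil-grown seedlings at species-specific leaf stages, with the compound sprayed as a wettable powder or emulsifiable concentrate dilution.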

[2] = system: corn (Zea mays L.); test: as above
Outline: as §1

[3] = system: crabgrass (Digitaria sanquinalis L.); test: as above
Outline: as §1

[4] = system: green foxtail (Setaria viridis L.); test: as above
Outline: (§2)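 Sow seeds in upland soil pots; at target leaf stage (wild oat 0.4–1.2, rice 0.2–2.7, foxtail 0.5–3.2, soybean primary leaf) spray formulated compound in water, 1,000 L/ha, 0.1 vol % surfactant. Score inhibition visually at day 14, 0–100%.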

[5] = system: italian ryegrass (Lolium multiflorum Lam.); test: as above
Outline: as §1

[6] = system: redroot pigweed (Amaranthus retroflexus L.); test: as above
Outline: as §1

[7] = system: rice (Oryza sativa L.); test: as above
Outline: as §2

[8] = system: soybean (Glycine max Merr.); test: as above
Outline: as §2

[9] = system: wheat (Triticum aestivum L.); test: as above
Outline: as §1

[10] = system: wild oat (Avena fatua L.); test: as above
Outline: as §2

[11] = system: barnyardgrass (Echinochloa crus-qalli L.); test: Test Example 2: soil application on the day after sowing, growth inhibition rate on 14th day
Outline: (§3)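 Field soil in 1/300,000 ha pots was sown, and the next day compounds formulated as wettable powders or emulsifiable concentrates were diluted in water (1,000 L/ha) and soil-sprayed at the prescribed active ingredient rates. Growth inhibition was scored visually 14 days later, 0 (untreated) to 100 (complete kill).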

[12] = system: corn (Zea mays L.); test: as above
Outline: as §3

[13] = system: crabgrass (Digitaris sanquinalis L.); test: as above
Outline: as §3

[14] = system: green foxtail (Setaria viridis L.); test: as above
Outline: as §3

[15] = system: prickly sida (Sida spinosa L.); test: as above
Outline: as §3

[16] = system: redroot pigweed (Amaranthus retroflexus L.); test: as above
Outline: as §3

[17] = system: rice (Oryza sativa L.); test: as above
Outline: as §3

[18] = system: soybean (Glycine max Merr.); test: as above
Outline: as §3

[19] = system: velvetleaf (Abutilon theophrasti MEDIC.); test: as above
Outline: as §3

[20] = system: wheat (Triticum aestivum L.); test: as above
Outline: as §3

[21] = visual, 0 = non-treated, 100 = complete kill

Compound	Growth inhibition rate (%) Barnyardgrass [11] [%]	Growth inhibition rate (%) Corn [12] [%]	Growth inhibition rate (%) Crabgrass [13] [%]	Growth inhibition rate (%) Green foxtail [14] [%]	Growth inhibition rate (%) Prickly sida [15] [%]	Growth inhibition rate (%) Redroot pigweed [16] [%]	Growth inhibition rate (%) Rice [17] [%]	Growth inhibition rate (%) Soybean [18] [%]	Growth inhibition rate (%) Velvetleaf [19] [%]	Growth inhibition rate (%) Wheat [20] [%]	Growth inhibition rate (%) Barnyardgrass [1] [%]	Growth inhibition rate (%) Corn [2] [%]	Growth inhibition rate (%) Crabgrass [3] [%]	Growth inhibition rate (%) Green foxtail [4] [%]	Growth inhibition rate (%) Italian ryegrass [5] [%]	Growth inhibition rate (%) Redroot pigweed [6] [%]	Growth inhibition rate (%) Rice [7] [%]	Growth inhibition rate (%) Soybean [8] [%]	Growth inhibition rate (%) Wheat [9] [%]	Growth inhibition rate (%) Wild oat [10] [%]	further results
Cc1ccc(Oc2cnc3cc(Cl)ccc3n2)cc1-c1c(OC(=O)c2ccccn2)c(C)nn(C)c1=O [Compound 3-51]	99	0	95	100	0	0	0	0	0	0											Growth inhibition rate (%) Barnyardgrass [1, 21]: 99%; Growth inhibition rate (%) Corn [2, 21]: 60%; Growth inhibition rate (%) Crabgrass [3, 21]: 100%; Growth inhibition rate (%) Green foxtail [4, 21]: 100%; Growth inhibition rate (%) Italian ryegrass [5, 21]: 99%; Growth inhibition rate (%) Redroot pigweed [6, 21]: 0%; Growth inhibition rate (%) Rice [7, 21]: 60%; Growth inhibition rate (%) Soybean [8, 21]: 30%; Growth inhibition rate (%) Wheat [9, 21]: 99%; Growth inhibition rate (%) Wild oat [10, 21]: 99%
C#CC(=O)Oc1c(C)nn(C)c(=O)c1-c1cc(Oc2cnc3cc(Cl)ccc3n2)ccc1C [Compound 3-82]	99	0	85	99	0	0	0	0	0	0											Growth inhibition rate (%) Barnyardgrass [1, 21]: 100%; Growth inhibition rate (%) Corn [2, 21]: 35%; Growth inhibition rate (%) Crabgrass [3, 21]: 98%; Growth inhibition rate (%) Green foxtail [4, 21]: 100%; Growth inhibition rate (%) Italian ryegrass [5, 21]: 98%; Growth inhibition rate (%) Redroot pigweed [6, 21]: 10%; Growth inhibition rate (%) Rice [7, 21]: 93%; Growth inhibition rate (%) Soybean [8, 21]: 0%; Growth inhibition rate (%) Wheat [9, 21]: 98%; Growth inhibition rate (%) Wild oat [10, 21]: 98%
Cc1ccc(Oc2ncc(C(F)(F)F)cc2Cl)cc1-c1c(OS(C)(=O)=O)c(C)nn(C)c1=O [1-62]	100	0	100	99	0	0	20	0	0	0	100	100	100	100	98	0	88	0	90	99	
CC(=O)Oc1c(C)nn(C)c(=O)c1-c1cc(Oc2ncc(C(F)(F)F)cc2C(F)(F)F)ccc1C [Compound 2-116]	100	85	100	100	0	0	0	0	0	60	100	100	100	100	100	0	90	10	99	100	
Cc1ccc(Oc2cnc3cc(Cl)ccc3n2)cc1-c1c(OC(=O)COc2ccccc2)c(C)nn(C)c1=O [Compound 3-48]	98	0	60	100	0	0	0	0	0	20											Growth inhibition rate (%) Barnyardgrass [1, 21]: 100%; Growth inhibition rate (%) Corn [2, 21]: 25%; Growth inhibition rate (%) Crabgrass [3, 21]: 98%; Growth inhibition rate (%) Green foxtail [4, 21]: 100%; Growth inhibition rate (%) Italian ryegrass [5, 21]: 95%; Growth inhibition rate (%) Redroot pigweed [6, 21]: 0%; Growth inhibition rate (%) Rice [7, 21]: 0%; Growth inhibition rate (%) Soybean [8, 21]: 10%; Growth inhibition rate (%) Wheat [9, 21]: 90%; Growth inhibition rate (%) Wild oat [10, 21]: 75%
CCc1ccc(Oc2nc3ccccc3o2)cc1-c1c(O)c(C)nn(C)c1=O [Compound 2-166]	99	0	95	100	0	0	70	0	0	0	100	80	88	100	99	20	88	30	10	40	
Cc1nn(C)c(=O)c(-c2cc(Oc3ncc(C(F)(F)F)cc3Cl)ccc2OC(F)(F)F)c1O [1-163]	100	80	100	100	0	0	40	0	0	0	100	100	100	100	99	0	75	0	60	100	
Cc1ccc(Oc2ccc(C(F)(F)F)cn2)cc1-c1c(O)c(C)nn(C)c1=O [Compound 2-3]	50	0	80	98	0	0	20	0	0	0	85	10	15	85	20	0	10	10	30	35	
